Assay results from PubChem BioAssay AID1259411 (Chemical Carcinogenesis Research Information System (CCRIS), 2018).
Calls of active or inactive are those of the source. How the calls were made is not given here.

Tested on: rodent carcinogenicity bioassays, tumor incidence
Test: CCRIS carcinogenicity studies
Details: Dose: 0, Dose: 0
Outline: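 NCI-built, expert-reviewed records of carcinogenicity and related test outcomes (mutagenicity, tumor promotion/inhibition) compiled from published and report sources, historical span 1985-2011, not updated.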

## CN1CCCC1=O
Species: MOUSE, Strain/Sex: B6C3F1/FEMALE, Route: ORAL, 600, 1200, 7200 PPM IN DIET FOR 18 MO (STUDY DURATION: 18 MO), 600, 1200, 7200 PPM IN DIET FOR 18 MO (STUDY DURATION: 18 MO), Tumor Site: Type of Lesion: LIVER: HEPATOCELLULAR ADENOMA, HEPATOCELLULAR CARCINOMA
  carcinogen call: active; positive
Species: MOUSE, Strain/Sex: B6C3F1/MALE, Route: ORAL, 600, 1200, 7200 PPM IN DIET FOR 18 MO (STUDY DURATION: 18 MO), 600, 1200, 7200 PPM IN DIET FOR 18 MO (STUDY DURATION: 18 MO), Tumor Site: Type of Lesion: LIVER: HEPATOCELLULAR ADENOMA, HEPATOCELLULAR CARCINOMA
  carcinogen call: active; positive
Species: RAT, Strain/Sex: CD-1/FEMALE, Route: INHALATION, 0.04, 0.4 MG/L 6 HR/D 5D/WK FOR 2 YR (STUDY DURATION: 2 YR), 0.04, 0.4 MG/L 6 HR/D 5D/WK FOR 2 YR (STUDY DURATION: 2 YR)
  carcinogen call: inactive; negative
Species: RAT, Strain/Sex: CD-1/FEMALE, Route: ORAL, 1600, 5000, 15000 PPM IN DIET FOR 2 YR (STUDY DURATION: 2 YR), 1600, 5000, 15000 PPM IN DIET FOR 2 YR (STUDY DURATION: 2 YR)
  carcinogen call: inactive; negative
Species: RAT, Strain/Sex: CD-1/MALE, Route: INHALATION, 0.04, 0.4 MG/L 6 HR/D 5D/WK FOR 2 YR (STUDY DURATION: 2 YR), 0.04, 0.4 MG/L 6 HR/D 5D/WK FOR 2 YR (STUDY DURATION: 2 YR)
  carcinogen call: inactive; negative
Species: RAT, Strain/Sex: CD-1/MALE, Route: ORAL, 1600, 5000, 15000 PPM IN DIET FOR 2 YR (STUDY DURATION: 2 YR), 1600, 5000, 15000 PPM IN DIET FOR 2 YR (STUDY DURATION: 2 YR)
  carcinogen call: inactive; negative

## CCCCCCc1ccc(O)cc1O
Species: MOUSE, Strain/Sex: B6C3F1/FEMALE, Route: GAVAGE, 62.5, 125 MG/KG IN CORN OIL 5D/WK FOR 102 WK (STUDY DURATION: 104 WK), 62.5, 125 MG/KG IN CORN OIL 5D/WK FOR 102 WK (STUDY DURATION: 104 WK)
  carcinogen call: inactive; negative
Species: MOUSE, Strain/Sex: B6C3F1/MALE, Route: GAVAGE, 62.5, 125 MG/KG IN CORN OIL 5D/WK FOR 102 WK (STUDY DURATION: 104 WK), 62.5, 125 MG/KG IN CORN OIL 5D/WK FOR 102 WK (STUDY DURATION: 104 WK), Tumor Site: Type of Lesion: ADRENAL GLAND: PHEOCHROMOCYTOMA, HARDERIAN GLAND: ADENOMA OR CARCINOMA
  carcinogen call: equivocal
Species: RAT, Strain/Sex: F344/FEMALE, Route: GAVAGE, 62.5, 125 MG/KG IN CORN OIL 5D/WK FOR 103 WK (STUDY DURATION: 104 WK), 62.5, 125 MG/KG IN CORN OIL 5D/WK FOR 103 WK (STUDY DURATION: 104 WK)
  carcinogen call: inactive; negative
Species: RAT, Strain/Sex: F344/MALE, Route: GAVAGE, 62.5, 125 MG/KG IN CORN OIL 5D/WK FOR 103 WK (STUDY DURATION: 104 WK), 62.5, 125 MG/KG IN CORN OIL 5D/WK FOR 103 WK (STUDY DURATION: 104 WK)
  carcinogen call: inactive; negative

## Cc1ccc(Cl)cc1N
Species: MOUSE, Strain/Sex: B6C3F1/FEMALE, Route: ORAL, 2000, 4000 PPM IN DIET, 2000, 4000 PPM IN DIET, Tumor Site: Type of Lesion: BLOOD VESSELS: HEMANGIOSARCOMA, LIVER: HEPATOCELLULAR ADENOMA OR CARCINOMA
  carcinogen call: active; positive
Species: MOUSE, Strain/Sex: B6C3F1/MALE, Route: ORAL, 2000, 4000 PPM IN DIET, 2000, 4000 PPM IN DIET, Tumor Site: Type of Lesion: BLOOD VESSELS: HEMANGIOSARCOMA, LIVER: HEPATOCELLULAR ADENOMA OR CARCINOMA
  carcinogen call: active; positive
Species: RAT, Strain/Sex: F344/FEMALE, Route: ORAL, 2500, 5000 PPM IN DIET, 2500, 5000 PPM IN DIET
  carcinogen call: inactive; negative
Species: RAT, Strain/Sex: F344/MALE, Route: ORAL, 2500, 5000 PPM IN DIET, 2500, 5000 PPM IN DIET
  carcinogen call: inactive; negative

## CC1CC(C)(C)CC(OOC(C)(C)C)(OOC(C)(C)C)C1 (centres undefined)
Species: MOUSE, Strain/Sex: B6C3F1/FEMALE, Route: ORAL, 0.25, 0.5% IN DIET FOR 78 WK (STUDY DURATION: 83 WK), 0.25, 0.5% IN DIET FOR 78 WK (STUDY DURATION: 83 WK)
  carcinogen call: inactive; negative
Species: MOUSE, Strain/Sex: B6C3F1/MALE, Route: ORAL, 0.25, 0.5% IN DIET FOR 78 WK (STUDY DURATION: 83 WK), 0.25, 0.5% IN DIET FOR 78 WK (STUDY DURATION: 83 WK)
  carcinogen call: inactive; negative

## O=[As](O)(O)O
Species: MOUSE, Strain/Sex: SWISS/FEMALE, Route: INTRAVENOUS, 0.5 MG/KG/WK FOR 20 WK (STUDY DURATION: 96 WK)
  carcinogen call: inactive; negative
Species: MOUSE, Strain/Sex: SWISS/MALE, Route: INTRAVENOUS, 0.5 MG/KG/WK FOR 20 WK (STUDY DURATION: 96 WK)
  carcinogen call: inactive; negative

## ClCOCCOCCl
Species: MOUSE, Strain/Sex: ICR/HA SWISS/FEMALE, Route: DERMAL, 1 MG IN 0.1 ML CYCLOHEXANE 3/WK FOR 502 D (STUDY DURATION: 570 D), Tumor Site: Type of Lesion: SKIN: PAPILLOMA, SKIN: SQUAMOUS CARCINOMA
  carcinogen call: active; positive
Species: MOUSE, Strain/Sex: ICR/HA SWISS/FEMALE, Route: INTRAPERITONEAL, 0.3 MG IN 0.05 ML TRICAPRYLIN 1/WK FOR 546 D (STUDY DURATION: 570 D), Tumor Site: Type of Lesion: PERITONEUM: SARCOMA
  carcinogen call: active; positive
Species: MOUSE, Strain/Sex: ICR/HA SWISS/FEMALE, Route: SUBCUTANEOUS, 0.3 MG IN 0.05 ML TRICAPRYLIN 1/WK FOR 569 D (STUDY DURATION: 570 D), Tumor Site: Type of Lesion: INJECTION SITE: SARCOMA
  carcinogen call: active; positive

## [O-][Cl+]O
Species: RAT, Strain/Sex: F344/FEMALE, Route: ORAL, 0.03, 0.06% IN DRINKING WATER FOR 85 WK (STUDY DURATION: 85 WK), 0.03, 0.06% IN DRINKING WATER FOR 85 WK (STUDY DURATION: 85 WK)
  carcinogen call: inactive; negative
Species: RAT, Strain/Sex: F344/MALE, Route: ORAL, 0.03, 0.06% IN DRINKING WATER FOR 85 WK (STUDY DURATION: 85 WK), 0.03, 0.06% IN DRINKING WATER FOR 85 WK (STUDY DURATION: 85 WK)
  carcinogen call: inactive; negative

## Nc1ccc(Sc2ccc(N)cc2)cc1
Species: MOUSE, Strain/Sex: B6C3F1/FEMALE, Route: ORAL, 2500, 5000 PPM IN DIET, 2500, 5000 PPM IN DIET, Tumor Site: Type of Lesion: LIVER: HEPATOCELLULAR CARCINOMA, THYROID GLAND: FOLLICULAR CELL ADENOMA OR CARCINOMA
  carcinogen call: active; positive
Species: MOUSE, Strain/Sex: B6C3F1/MALE, Route: ORAL, 2500, 5000 PPM IN DIET, 2500, 5000 PPM IN DIET, Tumor Site: Type of Lesion: LIVER: HEPATOCELLULAR ADENOMA OR CARCINOMA, THYROID GLAND: FOLLICULAR CELL ADENOMA OR CARCINOMA
  carcinogen call: active; positive
Species: RAT, Strain/Sex: F344/FEMALE, Route: ORAL, 1500, 3000 PPM IN DIET, 1500, 3000 PPM IN DIET, Tumor Site: Type of Lesion: THYROID GLAND: FOLLICULAR CELL CARCINOMA, UTERUS: ADENOCARCINOMA, NOS
  carcinogen call: active; positive
Species: RAT, Strain/Sex: F344/MALE, Route: ORAL, 1500, 3000 PPM IN DIET (68-72 WEEKS), 1500, 3000 PPM IN DIET (68-72 WEEKS), Tumor Site: Type of Lesion: LIVER: HEPATOCELLULAR ADENOMA OR CARCINOMA, COLON: ADENOCARCINOMA, NOS, THYROID GLAND: FOLLICULAR CELL ADENOMA OR CARCIN, Tumor Site: Type of Lesion: LIVER: HEPATOCELLULAR ADENOMA OR CARCINOMA, COLON: ADENOCARCINOMA, NOS, THYROID GLAND: FOLLICULAR CELL ADENOMA OR CARCIN
  carcinogen call: active; positive

## Cc1cc(-c2ccccc2C)ccc1NO
Species: RAT, Strain/Sex: ACI/SEG/MALE, Route: INTRAPERITONEAL, 50 UMOL/KG BW 2X/WK FOR 10 WK BEGINNING AT 3 D OF AGE (STUDY DURATION: 68 WK), Tumor Site: Type of Lesion: COLON: CARCINOMA
  carcinogen call: active; positive
Species: RAT, Strain/Sex: F344/MALE, Route: INTRAPERITONEAL, 5, 10, 20 MG/KG 1/2 WK FOR 20 WK (STUDY DURATION: 60 WK), 5, 10, 20 MG/KG 1/2 WK FOR 20 WK (STUDY DURATION: 60 WK), Tumor Site: Type of Lesion: PROSTATE: CARCINOMA, PERITONEUM: TUMOR, COLON: TUMOR, Tumor Site: Type of Lesion: PROSTATE: CARCINOMA, PERITONEUM: TUMOR, COLON: TUMOR
  carcinogen call: active; positive
